Among the data in US20250171420A1 (Monte Rosa Therapeutics, Inc., priority 2022, published 2025) are DC50 and IC50 values, retold here.

One test deals with T1, CK1α (Homo sapiens, UniProt P48729).
T1 construct: HEK293 clonal lines with CRISPR KI HiBiT tag on CSNK1A1
As to the kind of experiment: CK1α NanoBit Assay (HiBiT-tagged CSNK1A1, HEK293 clonal lines). The note with it: HEK293 HiBiT-CSNK1A1/LgBiT cells, 24 h incubation. The test is classed as cell-based. In a few lines: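 HEK293 clones carrying a CRISPR knock-in HiBiT tag on CSNK1A1 and stably expressing LgBiT are treated with compound for 24 hours at 37° C, 5% CO2, then read by luminescence. Response is normalized as 100*(S−N)/(P−N) against plate negative and positive controls, and DC50 values are derived.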
(The HiBiT peptide binds its large partner to form an active luciferase.)

The next test has as its target CRBN/DDB1 (Homo sapiens, UniProt Q96SW2). As to the kind of experiment: HTRF binding assay (displacement of Cy5-thalidomide probe from CRBN/DDB1). The note with it: CRBN/DDB1 2.5 nM, Cy5-Thalidomide 100 nM, 30 min; geometric mean; read-out: HTRF_Thali_Disp_DR_geo_IC50. The text has this: Binding of test compounds to CRBN/DDB1 was monitored in an HTRF assay using 1-[5-({2-[2-(2-{[2-(2,6-dioxopiperidin-3-yl)-1,3-dioxo-2,3-dihydro-1H-isoindol-4-yl]oxy}acetamido)ethoxy]ethyl}carbamoyl)pentyl]-3,3-dimethyl-2-[(1E,3E)-5-[(2E)-1,3,3-trimethyl-5-sulfo-2,3-dihydro-1H-indol-2-ylidene]penta-1,3-dien-1-yl]-3H-indol-1-ium-5-sulfonate as a fluorescent probe. In this assay, compounds displace the fluorescently labeled thalidomide-based probe bound to CRBN and fluorescence is monitored with increasing compound concentration. Assays were conducted in Greiner white 384 well HiBase plates (Cat. No 784075-25) in 10 μL total volume. A one pot detection solution of CRBN/DDB1 (2.5 nM), anti-His Terbium Cryptate Gold (1×, PerkinElmer Cat. #: 61HI2TLB), and Cy5-Thalidomide (100 nM, Tenova Cat.: T52461) was prepared in 20 mM HEPES, 20 mM NaCl, 0.2 mM TCEP, 0.2 mM EDTA, and 0.005% Tween20 was dispensed to each assay plate. Test compounds were stored in dry, ambient temperatures at 10 mM. A 10-point, 1:3 dilution series was prepared from 10 mM stock concentrations in Echo-compatible LDV plates. 10 nL of each compound dilution series was dispensed into assays wells using an Echo 650 (Labcyte inc. USA). 10 nL of 10 mM lenalidomide (Selleckchem Cat no. S1029) was transferred into the active-control wells for the assay and 10 nL of DMSO was transferred into the negative control wells. The assay was then allowed to incubate for 30 min at ambient temperature after transferring the test compounds. Plate measurements were taken on a Pherastar FSX (BMG Labtech, Germany) using the HTRF Red filter (Ex. 337 nm, em1: 620 nm, em2: 665 nm) (Flashes: 50, Integration time: 60-400 μs, Z-height: 10 mm, Ratio-multiplier: 10,000). Analysis, HTRF ratio and IC50 values were derived using KNIME analytics (KNIME Zurich) transformation and fitting within Collaborative Drug Discovery (Collaborative Drug Discovery USA) using a 4-parameter logistic fit. HTRF ratio calculation was performed using the following formula: […]
where Y represents the HTRF ratio response (as defined previously), X the compound concentration in μM, Ymin the minimum response plateau, Ymax the maximum response plateau, IC50 the concentration of agonist that gives a response half way between Ymin and Ymax and HillSlope the steepness of the family of curves. No fitting model constraints was applied on Ymin, or Ymax whilst IC50>0 and −0.5>HillSlope>−3
Ki values were derived from the geometric mean of the IC50 values using the Cheng-Prusoff transformation:
where [L] represents the concentration of fluorescent probe in μM, Kd the affinity (binding constant) of the fluorescent probe in units of μM and IC50 the concentration of agonist that gives a response halfway between Ymin and Ymax (as described in 1.2.1)
Analysis and IC50 values were derived using KNIME analytics (KNIME, Zurich) transformation and fitting within Collaborative Drug Discovery (Collaborative Drug Discovery, USA) as described in 1.2.1. Ki values were derived from the geometric mean of the IC50 values using the Cheng-Prusoff transformation as described in 2.2.2. Data was visualized in GraphPad Prism 8.1.2 (GraphPad, USA) and reported as mean and standard deviation. Microsoft Office Excel 2012 (Redmond, WA) was used for calculation of mean and standard deviation.
IC50 data are reported in Table 3 for compounds in Table 1. In Table 3 below, According to the code, A represents a IC50 value of ≤0.1 μM, B represents a IC50 value>0.1 μM and ≤1 μM, C represents an IC50 value>1 μM.
On the technique in general: In TR-FRET formats the signal depends on donor and acceptor labels being close together.

Chain of CRBN/DDB1 (Q96SW2 whole entry, species assumed): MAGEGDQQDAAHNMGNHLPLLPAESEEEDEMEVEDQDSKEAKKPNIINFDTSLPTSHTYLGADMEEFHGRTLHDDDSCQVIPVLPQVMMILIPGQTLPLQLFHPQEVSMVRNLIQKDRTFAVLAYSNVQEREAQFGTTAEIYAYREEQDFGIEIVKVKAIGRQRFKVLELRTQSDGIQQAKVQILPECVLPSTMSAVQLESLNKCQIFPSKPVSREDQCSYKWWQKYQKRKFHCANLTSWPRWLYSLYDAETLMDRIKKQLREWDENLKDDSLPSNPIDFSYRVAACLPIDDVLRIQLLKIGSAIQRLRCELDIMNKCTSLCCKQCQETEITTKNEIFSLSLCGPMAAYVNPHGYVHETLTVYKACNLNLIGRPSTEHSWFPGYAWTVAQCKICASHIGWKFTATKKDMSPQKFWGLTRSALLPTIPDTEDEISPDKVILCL
Chain of CRBN/DDB1 (Q16531 whole entry partner, species assumed): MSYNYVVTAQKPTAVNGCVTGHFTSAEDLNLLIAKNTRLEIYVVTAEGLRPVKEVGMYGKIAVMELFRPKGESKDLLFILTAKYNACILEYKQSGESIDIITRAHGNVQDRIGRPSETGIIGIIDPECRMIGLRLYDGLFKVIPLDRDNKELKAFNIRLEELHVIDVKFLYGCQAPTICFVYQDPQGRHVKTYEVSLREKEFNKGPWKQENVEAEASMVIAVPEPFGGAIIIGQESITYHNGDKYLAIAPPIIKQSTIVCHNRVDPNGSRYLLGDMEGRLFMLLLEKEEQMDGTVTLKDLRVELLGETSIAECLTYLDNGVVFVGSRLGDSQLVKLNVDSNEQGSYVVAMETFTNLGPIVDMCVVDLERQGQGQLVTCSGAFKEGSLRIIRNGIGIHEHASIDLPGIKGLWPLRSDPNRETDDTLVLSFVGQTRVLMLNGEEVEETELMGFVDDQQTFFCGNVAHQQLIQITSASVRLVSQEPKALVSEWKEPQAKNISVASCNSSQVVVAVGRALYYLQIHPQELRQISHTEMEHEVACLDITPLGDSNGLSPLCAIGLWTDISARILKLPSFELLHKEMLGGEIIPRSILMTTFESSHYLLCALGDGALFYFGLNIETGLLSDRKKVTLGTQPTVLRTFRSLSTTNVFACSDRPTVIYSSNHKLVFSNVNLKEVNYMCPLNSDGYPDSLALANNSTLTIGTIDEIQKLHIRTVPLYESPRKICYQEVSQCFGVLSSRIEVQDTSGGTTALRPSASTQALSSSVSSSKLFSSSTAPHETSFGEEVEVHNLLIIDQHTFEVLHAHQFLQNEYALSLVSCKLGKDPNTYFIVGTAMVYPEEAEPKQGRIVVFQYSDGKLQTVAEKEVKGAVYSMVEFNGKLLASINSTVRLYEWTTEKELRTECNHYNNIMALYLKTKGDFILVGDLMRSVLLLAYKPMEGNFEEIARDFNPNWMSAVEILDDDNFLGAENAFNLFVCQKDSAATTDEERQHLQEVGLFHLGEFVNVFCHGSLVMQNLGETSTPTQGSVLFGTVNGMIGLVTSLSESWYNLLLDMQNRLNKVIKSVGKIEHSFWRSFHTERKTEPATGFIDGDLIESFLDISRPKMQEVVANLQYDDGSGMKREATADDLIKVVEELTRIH
T1 sequence (P48729 whole entry): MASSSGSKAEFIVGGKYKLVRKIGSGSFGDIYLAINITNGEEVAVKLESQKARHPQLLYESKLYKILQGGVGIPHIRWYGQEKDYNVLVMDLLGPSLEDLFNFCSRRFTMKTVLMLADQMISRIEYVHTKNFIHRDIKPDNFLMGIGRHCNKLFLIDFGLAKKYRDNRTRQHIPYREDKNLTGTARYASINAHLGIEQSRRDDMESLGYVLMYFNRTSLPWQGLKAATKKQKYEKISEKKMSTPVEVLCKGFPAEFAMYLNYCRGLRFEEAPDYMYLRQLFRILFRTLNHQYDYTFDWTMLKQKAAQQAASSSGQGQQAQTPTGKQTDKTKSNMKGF
T1 sequence (Q96SW2 whole entry, further chain): as the sequence (Q96SW2 whole entry, species assumed) above
T1 sequence (Q16531 2-1140 partner limits assumed): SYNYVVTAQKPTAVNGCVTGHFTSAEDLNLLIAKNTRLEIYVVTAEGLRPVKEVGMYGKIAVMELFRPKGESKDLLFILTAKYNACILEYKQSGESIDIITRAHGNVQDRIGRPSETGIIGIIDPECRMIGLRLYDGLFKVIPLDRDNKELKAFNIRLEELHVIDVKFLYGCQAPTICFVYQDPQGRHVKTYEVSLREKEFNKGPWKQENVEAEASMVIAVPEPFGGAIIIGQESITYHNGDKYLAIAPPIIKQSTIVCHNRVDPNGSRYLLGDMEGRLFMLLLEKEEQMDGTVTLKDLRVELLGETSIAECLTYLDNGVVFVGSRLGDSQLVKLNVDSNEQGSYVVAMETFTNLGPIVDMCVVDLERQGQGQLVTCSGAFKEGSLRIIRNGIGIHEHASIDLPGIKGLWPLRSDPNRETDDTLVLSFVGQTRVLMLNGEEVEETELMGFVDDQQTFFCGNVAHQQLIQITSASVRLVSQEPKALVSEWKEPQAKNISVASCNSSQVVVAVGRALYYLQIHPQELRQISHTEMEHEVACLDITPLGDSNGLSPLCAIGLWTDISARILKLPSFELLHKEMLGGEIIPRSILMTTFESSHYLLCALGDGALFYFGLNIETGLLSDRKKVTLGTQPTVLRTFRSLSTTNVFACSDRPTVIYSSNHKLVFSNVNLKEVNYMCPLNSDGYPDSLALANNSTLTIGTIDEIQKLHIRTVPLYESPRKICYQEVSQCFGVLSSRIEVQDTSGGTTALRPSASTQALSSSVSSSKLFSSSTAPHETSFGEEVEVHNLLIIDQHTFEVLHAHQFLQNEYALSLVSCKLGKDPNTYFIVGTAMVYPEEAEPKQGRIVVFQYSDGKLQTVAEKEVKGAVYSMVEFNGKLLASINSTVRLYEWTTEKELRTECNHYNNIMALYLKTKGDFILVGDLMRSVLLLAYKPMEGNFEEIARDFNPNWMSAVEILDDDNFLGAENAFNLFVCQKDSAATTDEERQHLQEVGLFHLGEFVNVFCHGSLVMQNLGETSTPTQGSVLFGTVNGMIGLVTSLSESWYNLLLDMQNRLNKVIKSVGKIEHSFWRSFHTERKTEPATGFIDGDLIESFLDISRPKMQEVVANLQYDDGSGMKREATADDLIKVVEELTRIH

In turn, `O=C1CCC(N2Cc3cc(NC(=O)N4CCc5cc(C6CCOCC6)ccc54)ccc3C2=O)C(=O)N1` (centres unmarked) [Compound 349, N-(2-(2,6-dioxopiperidin-3-yl)-1-oxoisoindolin-5-yl)-5-(tetrahydro-2H-pyran-4-yl)indoline-1-carboxamide] had a DC50 at CK1α of less than 0.1 µM. In addition, at CRBN/DDB1, the IC50 lay in the range of 100 to 1000 nM.

Take `CC1Cc2cc(C(F)(F)F)ncc2N1C(=O)Nc1ccc2c(c1)CN(C1CCC(=O)NC1=O)C2=O` (centres unmarked) [Compound 353, N-(2-(2,6-dioxopiperidin-3-yl)-1-oxoisoindolin-5-yl)-2-methyl-5-(trifluoromethyl)-2,3-dihydro-1H-pyrrolo[2,3-c]pyridine-1-carboxamide]: the DC50 on CK1α was less than 0.1 µM. In addition, the IC50 on CRBN/DDB1 lay within 100 to 1000 nM.

In the case of `O=C1CCC(N2Cc3cc(NC(=O)N4c5ccccc5C5CC54)ccc3C2=O)C(=O)N1` (centres unmarked) [Compound 305, N-(2-(2,6-dioxopiperidin-3-yl)-1-oxoisoindolin-5-yl)-1a, 6b-dihydrocyclopropa[b]indole-2(1H)-carboxamide], the DC50 at CK1α is less than 0.1 µM. In addition, the IC50 on CRBN/DDB1 lay within 100 to 1000 nM.

With `COCC1c2ccc(C(F)(F)F)cc2CN1C(=O)Nc1ccc2c(c1)CN(C1CCC(=O)NC1=O)C2=O` (centres unmarked) [Compound 324, N-(2-(2,6-dioxopiperidin-3-yl)-1-oxoisoindolin-5-yl)-1-(methoxymethyl)-5-(trifluoromethyl)isoindoline-2-carboxamide], at CK1α, the DC50 was less than 0.1 µM. Also, on CRBN/DDB1, the IC50 was in the range of 100 to 1000 nM.

Compound `COCC1c2ccc(C)cc2CN1C(=O)Nc1ccc2c(c1)CN(C1CCC(=O)NC1=O)C2=O` (centres unmarked) [Compound 331, N-(2-(2,6-dioxopiperidin-3-yl)-1-oxoisoindolin-5-yl)-1-(methoxymethyl)-5-methylisoindoline-2-carboxamide] showed a DC50 on CK1α of less than 0.1 µM. For the same compound, the IC50 on CRBN/DDB1 lay within 100 to 1000 nM.

`O=C1CCC(N2Cc3cc(NC(=O)N4CC5(CCC5)c5ccccc54)ccc3C2=O)C(=O)N1` (centres unmarked) [Compound 188] came in with a DC50 on CK1α of less than 0.1 µM. Further, at CRBN/DDB1, the IC50 lay within 100 to 1000 nM.

`Cc1cc2c(cc1C)N(C(=O)Nc1ccc3c(c1)CN(C1CCC(=O)NC1=O)C3=O)CC2` (centres unmarked) [Compound 171, N-(2-(2,6-dioxopiperidin-3-yl)-1-oxoisoindolin-5-yl)-5,6-dimethylindoline-1-carboxamide]: on CK1α, the DC50 is less than 0.1 µM. Further, the IC50 on CRBN/DDB1 lay within 100 to 1000 nM.

Compound `CCOC[C@@H]1Cc2ccccc2N1C(=O)Nc1ccc2c(c1)CN(C1CCC(=O)NC1=O)C2=O` (stereo partly drawn) [Compound 313, (2S)—N-(2-(2,6-dioxopiperidin-3-yl)-1-oxoisoindolin-5-yl)-2-(ethoxymethyl)indoline-1-carboxamide] came in with a DC50 on CK1α of less than 0.1 µM. In addition, the IC50 on CRBN/DDB1 lay within 100 to 1000 nM.

The compound `O=C1CCC(N2Cc3cc(NC(=O)N4CCc5ccc(C6CC6)cc54)ccc3C2=O)C(=O)N1` (centres unmarked) [Compound 291, 6-cyclopropyl-N-(2-(2,6-dioxopiperidin-3-yl)-1-oxoisoindolin-5-yl)indoline-1-carboxamide] returned a DC50 on CK1α of less than 0.1 µM. In addition, the IC50 on CRBN/DDB1 fell in the range of 100 to 1000 nM.

For the compound `CN(C)C[C@@H]1Cc2ccccc2N1C(=O)Nc1ccc2c(c1)CN(C1CCC(=O)NC1=O)C2=O` (stereo partly drawn) [Compound 323, (2S)-2-((dimethylamino)methyl)-N-(2-(2,6-dioxopiperidin-3-yl)-1-oxoisoindolin-5-yl)indoline-1-carboxamide], the DC50 on CK1α lay in the range of 0.1 to 1 µM. The IC50 on CRBN/DDB1 lay in the range of 100 to 1000 nM.

Regarding `COCC1c2cc(C3CC3)ccc2CN1C(=O)Nc1ccc2c(c1)CN(C1CCC(=O)NC1=O)C2=O` (centres unmarked) [Compound 333, 6-cyclopropyl-N-(2-(2,6-dioxopiperidin-3-yl)-1-oxoisoindolin-5-yl)-1-(methoxymethyl)isoindoline-2-carboxamide], the DC50 at CK1α was less than 0.1 µM. Besides, the IC50 at CRBN/DDB1 fell in the range of 100 to 1000 nM.

`O=C1CCC(N2Cc3cc(NC(=O)N4c5ccccc5CC4C(F)(F)F)ccc3C2=O)C(=O)N1` (centres unmarked) [Compound 292, N-(2-(2,6-dioxopiperidin-3-yl)-1-oxoisoindolin-5-yl)-2-(trifluoromethyl)indoline-1-carboxamide] showed a DC50 at CK1α of less than 0.1 µM. Moreover, on CRBN/DDB1, the IC50 fell in the range of 100 to 1000 nM.

In turn, `O=C1CCC(N2Cc3cc(NC(=O)N4c5ccccc5C[C@H]4CN4CCC4)ccc3C2=O)C(=O)N1` (stereo partly drawn) [Compound 315, (2S)-2-(azetidin-1-ylmethyl)-N-(2-(2,6-dioxopiperidin-3-yl)-1-oxoisoindolin-5-yl)indoline-1-carboxamide] yielded a DC50 at CK1α of 0.1 to 1 µM. For the same compound, the IC50 at CRBN/DDB1 was 100 to 1000 nM.

The compound `C[C@@H]1Cc2cccc(F)c2N1C(=O)Nc1ccc2c(c1)CN(C1CCC(=O)NC1=O)C2=O` (stereo partly drawn) [Compound 350, (2R)—N-(2-(2,6-dioxopiperidin-3-yl)-1-oxoisoindolin-5-yl)-7-fluoro-2-methylindoline-1-carboxamide] came in with a DC50 at CK1α of less than 0.1 µM. In addition, at CRBN/DDB1, the IC50 lay within 100 to 1000 nM.

For the compound `COC[C@H]1Cc2ccccc2N1C(=O)Nc1ccc2c(c1)CN(C1CCC(=O)NC1=O)C2=O` (stereo partly drawn) [Compound 352, (2R)—N-(2-(2,6-dioxopiperidin-3-yl)-1-oxoisoindolin-5-yl)-2-(methoxymethyl)indoline-1-carboxamide], at CK1α, the DC50 was less than 0.1 µM. Also, the IC50 at CRBN/DDB1 is 100 to 1000 nM.

Consider `O=C1CCC(N2Cc3cc(NC(=O)N4CC5(CCOC5)c5ccccc54)ccc3C2=O)C(=O)N1` (centres unmarked) [Compound 317, N-(2-(2,6-dioxopiperidin-3-yl)-1-oxoisoindolin-5-yl)-4,5-dihydro-2H-spiro[furan-3,3′-indoline]-1′-carboxamide], for which the DC50 on CK1α is less than 0.1 µM. The IC50 at CRBN/DDB1 was in the range of 100 to 1000 nM.

On CK1α, `O=C1CCC(N2Cc3cc(NC(=O)N4c5ccccc5C[C@H]4COC(F)(F)F)ccc3C2=O)C(=O)N1` (stereo partly drawn) [Compound 311, (2S)—N-(2-(2,6-dioxopiperidin-3-yl)-1-oxoisoindolin-5-yl)-2-((trifluoromethoxy)methyl)indoline-1-carboxamide] showed a DC50 of less than 0.1 µM. Also, the IC50 on CRBN/DDB1 is 100 to 1000 nM.

On to `COC[C@@H]1CN(C(=O)Nc2ccc3c(c2)CN(C2CCC(=O)NC2=O)C3=O)c2ccccc21` (stereo partly drawn) [Compound 328, (3S)—N-(2-(2,6-dioxopiperidin-3-yl)-1-oxoisoindolin-5-yl)-3-(methoxymethyl)indoline-1-carboxamide], for which the DC50 on CK1α was less than 0.1 µM. In addition, the IC50 on CRBN/DDB1 fell in the range of 100 to 1000 nM.

Turning to `CC1(c2ccccc2)CN(C(=O)Nc2ccc3c(c2)CN(C2CCC(=O)NC2=O)C3=O)C1` (centres unmarked) [Compound 109, N-(2-(2,6-dioxopiperidin-3-yl)-1-oxoisoindolin-5-yl)-3-methyl-3-phenylazetidine-1-carboxamide], on CK1α, the DC50 lay within 0.1 to 1 µM. In addition, the IC50 at CRBN/DDB1 fell in the range of 100 to 1000 nM.

`CN1CCN(C(=O)Nc2ccc3c(c2)CN(C2CCC(=O)NC2=O)C3=O)c2ccccc21` (centres unmarked) [Compound 286] registered a DC50 at CK1α of 0.1 to 1 µM. Moreover, the IC50 on CRBN/DDB1 was 100 to 1000 nM.

For the compound `O=C1CCC(N2Cc3cc(NC(=O)N4CCc5cc(Cl)ccc54)ccc3C2=O)C(=O)N1` (centres unmarked) [Compound 197, 5-chloro-N-(2-(2,6-dioxopiperidin-3-yl)-1-oxoisoindolin-5-yl)indoline-1-carboxamide], the DC50 at CK1α is less than 0.1 µM. In addition, on CRBN/DDB1, the IC50 is greater than 1000 nM.

With `COCc1ccc2c(c1)CCN2C(=O)Nc1ccc2c(c1)CN(C1CCC(=O)NC1=O)C2=O` (centres unmarked) [Compound 330, N-(2-(2,6-dioxopiperidin-3-yl)-1-oxoisoindolin-5-yl)-5-(methoxymethyl)indoline-1-carboxamide], the DC50 on CK1α was less than 0.1 µM. Further, on CRBN/DDB1, the IC50 was 100 to 1000 nM.
